Where two headings read alike, the source gives them in different places.
Legend:
[1] = system: MDA-MB-468 cells; test: Resazurin viability assay with or without folinic acid, MDA-MB-468; assay type: cell-based, Human; conditions: 72 h; for Rescue of viability impairment by folinic acid: MDA-MB-468, 10 μM ± 300 μg/mL FA
Experimental: (§1) The incorporation and metabolism of resazurin to resorufin was used to monitor cell viability. MDA-MB-468, MCF7, and MDA-MB-231 cells were grown in 96-well plates with a total of 5000 cells per well in a total volume of 180 μL for 24 h, as described above. After 24 h of growth, cells were treated with increasing concentrations of compounds (0.0457–100 μM) for 72 h. A vehicle control was also performed. […] The volume of treatment added to each well was 20 μL. For folinic acid rescue experiments, 5000 cells were treated with 10 μM compound with or without 300 μg/mL folinic acid (Supelco). After 72 h of treatment, resazurin was added to a final concentration of 44 μM, and cells were incubated for an additional 4 h at 37 °C. The fluorescence of resorufin was monitored on a Synergy MX microplate reader (BioTek) using an excitation wavelength of 540 nm and an emission wavelength of 600 nm. Percent viability relative to the DMSO control was determined. Each treatment was performed in triplicate, and each individual experiment was repeated three times (n = 3).

[2] = system: T1, thymidine phosphorylase (TP) in MDA-MB-468 cell lysates; test: Lysate CETSA for thymidine phosphorylase; assay type: binding, Human; conditions: 10 μM, 65 °C, n = 1
T1 construct: MDA-MB-468 lysates were treated with 10 μM each; endogenous in cells; host or cells: MDA-MB-468

[3] = target: T2, purified human DHFR (Homo sapiens, UniProt P00374); test: DHFR enzymatic inhibition assay (NADPH absorbance at 340 nm); assay type: biochemical; conditions: 137.5 μM DHF, 125 μM NADPH, n = 2
T2 construct: made in house; host or cells: E. coli BL21 (DE3) T1R pRARE2, pNIC-Bsa4 plasmid
T2 sequence (P00374 1-187): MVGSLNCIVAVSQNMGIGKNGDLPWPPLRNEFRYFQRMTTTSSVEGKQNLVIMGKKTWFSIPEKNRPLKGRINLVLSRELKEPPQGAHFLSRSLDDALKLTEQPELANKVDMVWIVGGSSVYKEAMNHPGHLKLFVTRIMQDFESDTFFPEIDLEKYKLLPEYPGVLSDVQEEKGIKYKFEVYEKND
Experimental: Working stocks of each inhibitor were created so that the final concentration of DMSO in each reaction was 2% in a final reaction volume of 100 μL. […] Reactions were prepared on ice in 384-well plates. […] Consumption of NADPH by measuring absorbance at 340 nm was used to monitor the progress of the reaction. Readings were taken every 5 min for 1 h at 37 °C using a Synergy MX microplate reader (BioTek).
Percent inhibition relative to the no-inhibitor control was determined using Equation (1). (1) % Inhibition=A340Inhibitor−A340DMSO Control/A340No DHFR−A340DMSO Control×100
Percent inhibition data were then fit to the four-parameter logistic model (Equation (2)) in GraphPad Prism 9.4.1 to determine half-maximal inhibitory concentrations (IC50):(2) y=Bottom+Top−Bottom/1+IC50/x^Hill slope where y represents the percent inhibition, x represents the concentration of inhibitor (μM), the bottom and top represent the bottom and top plateaus, and the Hill slope represents the slope factor. Each experiment contained duplicates of each sample, and each experiment was performed 2 times (n = 2). An ordinary one-way ANOVA was used to test for statistical significance between treatments.

[4] = system: MCF-7 cells; test: Resazurin viability assay with or without folinic acid, MCF-7; assay type: cell-based, Human; conditions: 72 h
Experimental: as §1

[5] = system: MDA-MB-231 cells; test: Resazurin viability assay with or without folinic acid, MDA-MB-231; assay type: cell-based, Human; conditions: 72 h
Experimental: as §1

[6] = system: MDA-MB468, MDA-MB-231, and MCF-7 breast cancer cell lines; test: Dose-response viability in breast cancer cell lines (statements not split by line); assay type: cell-based, Human; conditions: 0–100 μM, 72 h
Experimental: as §1

[7] = system: leukemia; design: method as in PMID 5479856, PMID 5479852, PMID 5241406; conditions: early studies in the 1970s; cited from earlier work

| SMILES | Rescue of viability impairment by folinic acid [1] | TP stabilization by CETSA [2] | IC50 ([3]; 200 nM DHFR, read-out: IC50) [nM] | IC50 ([3]; IC50, 200 nM DHFR) [nM] | Relative Viability (%) – Inhibitor + FA Treatment ([4]; MCF-7, 10 μM + 300 μg/mL folinic acid) [%] | Relative Viability (%) – Inhibitor Alone ([4]; MCF-7, 10 μM, relative to DMSO) [%] | Relative Viability (%) – Inhibitor + FA Treatment ([5]; MDA-MB-231, 10 μM + 300 μg/mL folinic acid) [%] | Rescue of viability impairment by folinic acid ([5]; MDA-MB-231, 10 μM ± 300 μg/mL FA) | Relative Viability (%) – Inhibitor Alone ([5]; MDA-MB-231, 10 μM, relative to DMSO) [%] | Relative Viability (%) – Inhibitor + FA Treatment ([1]; MDA-MB-468, 10 μM + 300 μg/mL folinic acid) [%] | Relative Viability (%) – Inhibitor Alone ([1]; MDA-MB-468, 10 μM, relative to DMSO) [%] | Phenotypic response in viability dose-response [6] | Anti-leukemic activity in vivo [7] |
| --- | --- | --- | --- | --- | --- | --- | --- | --- | --- | --- | --- | --- | --- |
| CCc1nc(N)nc(N)c1-c1ccc(Cl)cc1 [Pyr, Pyrimethamine] | statistically significant rescue | no stabilization of TP was detected | – | – | – | – | – | – | – | – | – | – | – |
| CC1(C)N=C(N)N=C(N)N1c1ccc(CCCCc2ccc(S(=O)(=O)F)cc2)c(Cl)c1 [compound 127159] | rescued in all but MDA-MB-468 cells | – | 750 ± 320 | < 1000 | 99.99 ± 3.2 | 67.68 ± 13.3 | 106.42 ± 15.0 | largest amplitude of rescue | 50.08 ± 8.8 | 77.23 ± 7.2 | 70.45 ± 7.8 | little effect at low concentrations and cytotoxicity at higher concentrations | promising anti-leukemic activity in vivo |

Reference: paper PMC9961069 (Metabolites, 2023)
